Laboratory results taken from paper PMC5216742, “Discovery and characterization of a novel potent type II native and mutant BCR-ABL inhibitor (CHMFL-074) for Chronic Myeloid Leukemia (CML)” (Oncotarget, 2016).

Legend:
Tel-BLK-BaF3 = assay: Anti-proliferation, BaF3 isogenic cell lines; type: cell-based; settings: Mus musculus, BaF3, 72 h
Text: (§1) Retroviral constructs for fusion kinases were made based on the pMSCVpuro (Clontech) backbone. For TEL fusion vectors, the first 1 kb of human TEL gene with an artificial myristoylation sequence ([…]) was cloned into pMSCVpuro retroviral vector, followed by a 3xFLAG tag sequence and a stop codon; for BCR fusion vectors, the first 2.8 kb coding region of p210 amplified from K562 cell line was used in fusion constructs. Then the kinase domain coding sequences were inserted in-frame between TEL/BCR and 3xFLAG sequences. All mutagenesis were performed using the QuikChange Site-Directed Mutagenesis Kit (Stratagene) following the manufacturer's instructions. Retrovirus was packaged in HEK293T cells by transfecting kinase-fusion MSCV vectors together with two helper plasmids, virus supernatants were harvested 48 hours after transfection and filtered before infection. Then BaF3 cells were infected with harvested virus supernatants using spinoculation protocol and stable cell lines were obtained by puromycin selection for 48 hours. A second selection in the absence of IL-3 was performed to obtain IL-3 independent cell lines that solely depend on the introduced kinase activities for cell proliferation.
(§2) A density of 1 × 10^4 to 2.5 × 10^4 cells/mL cells were mixed with various concentrations of compounds then 100 μL suspension was added to each well and incubated for 72 hours. Cell viability was determined using the CellTiter-Glo assay (Promega, USA) or CCK-8 assay (Beboy, China). Both assays were performed according to the manufacturer instructions. For CellTiter-Glo assay, luminescence was determined in a multi-label reader (Envision, PerkinElmer, USA). […] Data were normalized to control group (DMSO). GI50 were calculated using Prism 6.0 (GraphPad Software, San Diego, CA).

BaF3 = assay: Anti-proliferation, BaF3 isogenic cell lines; type: cell-based; settings: Mus musculus, BaF3, 72 h
Text: as §1, §2

P210-F317I-BaF3 = assay: Anti-proliferation, BaF3 isogenic cell lines; type: cell-based; settings: Mus musculus, BaF3, 72 h
Text: as §1, §2

P210-Q252H-BaF3 = assay: Anti-proliferation, BaF3 isogenic cell lines; type: cell-based; settings: Mus musculus, BaF3, 72 h
Text: as §1, §2

Tel-HCK-BaF3 = assay: Anti-proliferation, BaF3 isogenic cell lines; type: cell-based; settings: Mus musculus, BaF3, 72 h
Text: as §1, §2

P210-F317L-BaF3 = assay: Anti-proliferation, BaF3 isogenic cell lines; type: cell-based; settings: Mus musculus, BaF3, 72 h
Text: as §1, §2

P210-E255K-BaF3 = assay: Anti-proliferation, BaF3 isogenic cell lines; type: cell-based; settings: Mus musculus, BaF3, 72 h
Text: as §1, §2

[1] = biological target: T1, ABL1(M351T)-phosphorylated (Homo sapiens, UniProt P00519, M351T); assay: KinomeScan profiling; type: binding; settings: 1 µM CHMFL-074; read-out: % Control
T1 construct: purchased DiscoveRx (KinomeScan service)

BCR-ABL = biological target: T2, BCR-ABL (Homo sapiens, UniProt P00519); assay: BCR-ABL auto-phosphorylation (Y245) immunoblotting in K562 cells; type: cell-based
T2 construct: BCR N-terminal part (natural fusion partner of p210 BCR-ABL); endogenous in cells; host or cells: K562
Procedure: Cells were washed with ice cold phosphate buffered saline (PBS), lysed using radio-immunoprecipitation (RIPA) buffer [150 mM NaCl, 1% (vol/vol) Nonidet P-40, 0.5% (wt/vol) sodium deoxycholate, 0.1% (wt/vol) SDS] in 50 mM Tris HCl (pH 8.0) supplemented with protease and phosphatase inhibitors (Thermo, USA). Protein concentrations were determined using the BCA Protein Assay kit (Beyotime, China) according to the manufacturer's protocol. Proteins were separated by SDS-PAGE and transferred to an Immobilon-P PVDF membrane (Millipore, USA), and blocked in 5% dry milk in Tris Buffered Saline, with Tween 20 (TBST). Membranes were incubated with primary and secondary antibodies, and target proteins were detected with ECL detection reagent (Pierce, USA). β-Actin (Sigma-Aldrich) served as a loading control. Phospho-c-Abl (Tyr245)(73E5) Rabbit mAb (2868), c-Abl antibody (2862), STAT5 (3H7) Rabbit mAb (9358), Phospho-STAT5 (Tyr694)(C71E5) Rabbit mAb (9314), Akt (pan)(C67E7) Rabbit mAb (4691), Phospho-Akt (Thr308) (244F9) Rabbit mAb (4056), Phospho-Akt (Ser473) (D9E) XP® Rabbit mAb (4060), Phospho-CrkL (Tyr207) antibody (3181), CrkL (32H4) Mouse mAb (3182), Phospho-p44/42 MAPK (Erk1/2) (Thr202/Tyr204) (197G2) Rabbit mAb (4377), p44/42 MAPK (Erk1/2) (137F5) Rabbit mAb (4695) antibodies were obtained from Cell Signaling Technology (MA, USA).

Question: Which GI50 (Tel-BLK-BaF3) does the source give for Cc1ccc(NC(=O)c2ccc(CN3CCN(C)CC3)c(C(F)(F)F)c2)cc1OC1CCN(C(=O)c2cccnc2)CC1 [CHMFL-074] here?
Answer: The GI50 was 2.86 µM.

Question: And the GI50 (BaF3)?
Answer: Its GI50 is over 10 µM.

Question: What about the GI50 (P210-F317I-BaF3) of the same molecule?
Answer: Its GI50 is 0.355 µM.

Question: And the GI50 (P210-Q252H-BaF3)?
Answer: Its GI50 is 0.118 µM.

Question: What about the GI50 (Tel-HCK-BaF3) of the same molecule?
Answer: The GI50 was over 10 µM.

Question: What about the GI50 (P210-F317L-BaF3) of the same molecule?
Answer: Its GI50 is 0.218 µM.

Question: What about the GI50 (P210-E255K-BaF3) of the same molecule?
Answer: Its GI50 is 0.774 µM.

Question: And the remaining binding at 1 µM [1]?
Answer: Its remaining binding at 1 µM is 1%.

Question: What about the EC50 (BCR-ABL) of the same molecule?
Answer: Its EC50 is under 0.1 µM.
